Measured values reported in ChEMBL document CHEMBL1132164, “Nonpeptidic HIV protease inhibitors: 6-alkyl-5,6-dihydropyran-2-ones possessing achiral 3-(4-amino/carboxamide-2-t-butyl,5-methylphenyl thio) moiety: antiviral activities and pharmacokinetic properties” (Bioorg Med Chem Lett, 1999).

Experiments:
[1] = target: T1, Human immunodeficiency virus type 1 protease (Human immunodeficiency virus 1, UniProt Q72874); test: In vitro binding affinity against HIV protease at pH 6.2.
[2] = system: HIV protease; test: (§1) Therapeutic index for HIV protease was determined; conditions: read-out: Therapeutic index
[3] = system: Human immunodeficiency virus 1; test: (§2) Tested for antiviral activity against HIV-III B strain infected human lymphocyte derived CEM cells; type: functional, organism-based, CCRF-CEM
[4] = system: CCRF-CEM; test: Tested for the cytotoxic effect in uninfected human lymphocyte derived CEM cells.; type: functional; conditions: read-out: TC50 (the source's name)
[5] = target: T1, Human immunodeficiency virus type 1 protease; test: Binding affinity towards HIV protease was determined
[6] = system: Mus musculus; test: Time taken for EC90 was determined when tested in mouse at dose 25 mg/kg; type: ADME, organism-based; design: dose 25 mg/kg; conditions: in vivo
[7] = Area under the curve for the compound is obtained at dose 25 mg/kg; type: ADME, organism-based; design: dose 25 mg/kg; conditions: mouse, in vivo
[8] = target: Human immunodeficiency virus type 1 protease (Human immunodeficiency virus 1) (UniProt Q72874); test: In vitro binding affinity to HIV protease was determined
[9] = Maximum concentration obtained in mouse plasma was determined at dose 25 mg/kg; type: ADME, organism-based; design: dose 25 mg/kg
[10] = Bioavailability was obtained by the comparison of AUC of subcutaneous dosing and AUC of oral dosing in mouse at dose 25 mg/kg; type: ADME, organism-based; conditions: in vivo, read-out: Bioavailabiility
[11] = Half life in mouse plasma at dose 25 mg/kg; type: ADME, organism-based; design: dose 25 mg/kg
[12] = target: T1, Human immunodeficiency virus type 1 protease; test: In vitro binding affinity to HIV protease was determined at pH 4.7
[13] = Therapeutic index was determined; conditions: read-out: TI
[14] = target: T1, Human immunodeficiency virus type 1 protease; test: In vitro binding affinity against HIV protease at pH 6.2 was determined
[15] = Area under the curve for the compound was obtained when tested in dog; type: ADME, organism-based, Canis lupus familiaris; conditions: in vivo
[16] = Area under the curve for the compound was obtained when tested in mouse; type: ADME, organism-based; conditions: in vivo
[17] = Bioavailability was obtained by the comparison of AUC of subcutaneous dosing and AUC of oral dosing in mouse; type: ADME, organism-based; conditions: in vivo, read-out: Bioavailabiility
[18] = system: CCRF-CEM; test: as §2; type: functional
[19] = as §1
[20] = Maximum concentration obtained in mouse plasma was determined; type: ADME, organism-based
[21] = Half life in mouse plasma was determined at dose 25 mg/kg; type: ADME, organism-based; design: dose 25 mg/kg
[22] = species: Canis familiaris; test: Time taken for EC90 was determined when tested in dog; type: ADME, organism-based, Canis lupus familiaris; conditions: in vivo
[23] = Half life in dog plasma was determined at dose 10 mg/kg; type: ADME, organism-based, Canis lupus familiaris; design: dose 10 mg/kg
[24] = species: Mus musculus; test: Time taken for EC90 was determined when tested in mouse; type: ADME, organism-based; conditions: in vivo
[25] = Bioavailability was obtained by the comparison of AUC of intravenous dosing and AUC of oral dosing in dog; type: ADME, organism-based, Canis lupus familiaris; conditions: in vivo, read-out: Bioavailabiility
[26] = Maximum concentration obtained in dog plasma was determined; type: ADME, organism-based, Canis lupus familiaris
[27] = Human immunodeficiency virus 1, CCRF-CEM

| Structure (SMILES) | IC50 [1] [nM] | selectivity ratio [2] | EC50 [3, 27] [µM] | CC50 [4] [µM] | further results |
| --- | --- | --- | --- | --- | --- |
| Cc1cc(SC2=C(O)OC(CCc3ccc(O)cc3)(C3CCCC3)CC2=O)c(C(C)(C)C)cc1N (stereo not given) | 6 | 22 | 3.8 | 82 | – |
| Cc1cc(SC2=C(O)OC(CCc3ccc(O)cc3)(C3CC3)CC2=O)c(C(C)(C)C)cc1N (stereo not given) | 4.1 | 20 | 2.5 | 49 | – |
| Cc1cc(SC2=C(O)OC(CCc3ccccc3)(c3ccccc3)CC2=O)c(C(C)(C)C)cc1N (stereo not given) | 11 | < 1 | > 64 | 64 | – |
| Cc1cc(SC2=C(O)OC(CCc3ccc(O)cc3)(C(C)C)CC2=O)c(C(C)(C)C)cc1NC(=O)c1ccc(C#N)cc1 (stereo not given) | 5 | 16 | 4.1 | 66 | – |
| Cc1cc(SC2=C(O)OC(CCc3ccc(O)cc3)(C(C)C)CC2=O)c(C(C)(C)C)cc1NC(=O)c1cccnc1 (stereo not given) | 5.1 | > 20 | 4.9 | > 100 | – |
| CCCCCC1(CCc2ccc(O)cc2)CC(=O)C(Sc2cc(C)c(N)cc2C(C)(C)C)=C(O)O1 (stereo not given) | 7.7 | < 1 | > 24 | 24 | – |
| CCCCC1(CCc2ccc(O)cc2)CC(=O)C(Sc2cc(C)c(N)cc2C(C)(C)C)=C(O)O1 (stereo not given) | 4.4 | 7 | 3.7 | 25 | – |
| Cc1cc(SC2=C(O)OC(CCc3ccc(O)cc3)(C(C)C)CC2=O)c(C(C)(C)C)cc1N (stereo not given) | 2.7 | 92 | 1 | 92 | Ki [5]: 0.67 nM; Hours above EC90 [6]: 3.2; AUC [7]: 44.8 µM·h; EC90 [8]: 3.5 µM; Cmax [9]: 21 µM; bioavailability [10]: 59.2%; half-life [11]: 126 min |
| Cc1cc(SC2=C(O)OC(CCc3ccc(O)cc3)(C(C)C)CC2=O)c(C(C)(C)C)cc1NC(=O)CC(C)(C)C (stereo not given) | 60 | 4 | 16 | 67 | – |
| CC(=O)Nc1cc(C(C)(C)C)c(SC2=C(O)OC(CCc3ccc(O)cc3)(C(C)C)CC2=O)cc1C (stereo not given) | 3.4 | > 21 | 4.8 | > 100 | – |
| CC(=O)Nc1cc(C(C)(C)C)c(SC2=C(O)OC(CCc3ccccc3)(C(C)C)CC2=O)cc1C (stereo not given) | 3.5 | 46 | 1.8 | 83 | – |
| Cc1cc(SC2=C(O)OC(CCc3ccc(O)cc3)(C(C)C)CC2=O)c(C(C)(C)C)cc1NC(=O)c1ccccc1 (stereo not given) | 13.2 | 12 | 5.4 | 66 | – |
| CCCC1(CCc2ccc(O)cc2)CC(=O)C(Sc2cc(C)c(N)cc2C(C)(C)C)=C(O)O1 (stereo not given) | 3.8 | 15 | 4.1 | 62 | – |
| Cc1cc(SC2=C(O)OC(C)(CCc3ccc(O)cc3)CC2=O)c(C(C)(C)C)cc1O (stereo not given) | – | < 1 | > 7 | 7 | – |
| Cc1cc(SC2=C(O)OC(CCc3ccc(O)cc3)(C(C)C)CC2=O)c(C(C)(C)C)cc1N(C)C (stereo not given) | 11 | 36 | 1.9 | 68 | – |
| Cc1cc(SC2=C(O)OC(CCc3ccc(O)cc3)(C(C)C)CC2=O)c(C(C)(C)C)cc1NC(=O)OC(C)(C)C (stereo not given) | 91 | – | – | – | – |

| Structure (SMILES) | IC50 [1] [nM] | selectivity ratio [2] | EC50 [3, 27] [µM] | CC50 [4] [µM] | further results |
| --- | --- | --- | --- | --- | --- |
| Cc1cc(SC2=C(O)OC(C)(CCc3ccc(O)cc3)CC2=O)c(C(C)(C)C)cc1N (stereo not given) | 9.6 | 7 | 9.4 | 66 | – |
| Cc1cc(SC2=C(O)OC(CCc3ccc(O)cc3)(C(C)C)CC2=O)c(C(C)(C)C)cc1NC(=O)c1ccccn1 (stereo not given) | 6.1 | 44 | 1.5 | 66 | – |
| Cc1cc(SC2=C(O)OC(CCc3ccc(O)cc3)(CC(C)C)CC2=O)c(C(C)(C)C)cc1N (stereo not given) | 13.5 | 8 | 8.1 | 62 | – |
| Cc1ccc(C(C)(C)C)c(SC2=C(O)O[C@](CCc3ccccc3)(c3ccccc3)CC2=O)c1 | – | – | – | – | IC50 [12]: 10 nM |
| Cc1cc(SC2=C(O)OC(CCc3ccc(O)cc3)(C(C)C)CC2=O)c(C(C)(C)C)cc1NC(=O)c1cccc(C#N)c1 (stereo not given) | 15 | 5 | 14 | 66 | – |
| Cc1cc(SC2=C(O)O[C@](CCc3ccc(N)cc3)(C(C)C)CC2=O)c(C(C)(C)C)cc1CO | – | – | – | – | selectivity ratio [13]: 1050 |
| Cc1cc(SC2=C(O)OC(CCc3ccc(N)cc3)(C(C)C)CC2=O)c(C(C)(C)C)cc1N (stereo not given) | 7.5 | 33 | 0.9 | 30 | – |
| Cc1cc(SC2=C(O)OC(CCc3ccccc3)(C(C)C)CC2=O)c(C(C)(C)C)cc1N (stereo not given) | 3.3 | 36 | 1.9 | 69 | – |
| Cc1cc(SC2=C(O)OC(CCc3ccc(O)cc3)(C3CCCCC3)CC2=O)c(C(C)(C)C)cc1N (stereo not given) | 20 | 7 | 10 | 66 | – |
| Cc1cc(SC2=C(O)O[C@](CCc3ccc(O)cc3)(C(C)C)CC2=O)c(C(C)(C)C)cc1CO | – | – | 0.46 | – | selectivity ratio [13]: > 200; Ki [14]: 0.09 nM |
| Cc1cc(SC2=C(O)O[C@](CCc3ccc(O)cc3)(C(C)C)CC2=O)c(C(C)(C)C)cc1N (stereo in doubt; 15S) | – | – | – | 211 | AUC [15]: 138 µM·h; Ki [5]: 0.07 nM; AUC [16]: 30 µM·h; bioavailability [17]: 100%; EC90 [18]: 1000 nM; Therapeutic index [19]: 422; Cmax [20]: 21.7 µM; half-life [21]: 72 min; EC50 ([3]; ccrf-cem): 0.5 µM; Hours above EC90 [22]: 8.5; half-life [23]: 102 min; Hours above EC90 [24]: 4; bioavailability [25]: 56%; Cmax [26]: 71 µM |
| Cc1cc(SC2=C(O)OC(CCc3ccc(O)cc3)(C(C)C)CC2=O)c(C(C)(C)C)cc1NC(=O)c1ccc(C(F)(F)F)cc1 (stereo not given) | 12.1 | 5 | 5 | 27 | – |
| Cc1cc(SC2=C(O)OC(CCc3ccc(O)cc3)(C(C)C)CC2=O)c(C(C)(C)C)cc1NC(=O)c1ccncc1 (stereo not given) | 5.08 | > 20 | 5.1 | > 100 | – |
| Cc1cc(SC2=C(O)O[C@](CCc3ccc(O)cc3)(C(C)C)CC2=O)c(C(C)(C)C)cc1N (stereo in doubt; 15R) | – | – | – | – | Ki [5]: 13 nM; Therapeutic index [19]: 2; EC50 ([3]; ccrf-cem): 91 µM |
| Cc1cc(SC2=C(O)OC(CCc3ccccc3)(C(C)C)CC2=O)c(C(C)(C)C)cc1NC(=O)c1ccc(C#N)cc1 (stereo not given) | 14 | 6 | 8.3 | 46 | – |
